Source: BindingDB's records for doi:10.1021/jm00161a033 (1986)

Target: Aldose reductase (Oryctolagus cuniculus)
Test: In vitro inhibition of rabbit lens aldose reductase.

| IC50 [µM] | Structure (SMILES) |
| --- | --- |
| 2.7 | CC(C(=O)O)c1cc(O)c2c(=O)c3ccccc3ccc2c1 (stereo not given) [2-(4-Hydroxy-5-oxo-5H-dibenzo[a,d]cyclohepten-2-yl)-propionic acid] |
| 0.21 | CC(C(=O)O)c1cc(O)c2c(c1)CCc1ccccc1C2=O (stereo not given) [2-(4-Hydroxy-5-oxo-10,11-dihydro-5H-dibenzo[a,d]cyclohepten-2-yl)-propionic acid] |
| 0.77 | O=C1Cc2ccc3c(c2O1)CCc1ccccc1C3=O [11,12-Dihydro-3H-1-oxa-benzo[4,5]cyclohepta[1,2-e]indene-2,6-dione] |
| 0.76 | O=C(O)Cc1cc(O)c2c(=O)c3ccccc3ccc2c1 [(4-Hydroxy-5-oxo-5H-dibenzo[a,d]cyclohepten-2-yl)-acetic acid] |
| 110 | O=C(O)Cc1cc(O)c2c(c1)CCc1ccccc1C2=O [(4-Hydroxy-5-oxo-10,11-dihydro-5H-dibenzo[a,d]cyclohepten-2-yl)-acetic acid] |
| 1 | O=C(O)Cc1ccc2c(=O)c3ccccc3ccc2c1 [(5-Oxo-5H-dibenzo[a,d]cyclohepten-2-yl)-acetic acid] |
| 160 | O=C(O)Cc1ccc2c(c1)CCc1ccccc1C2=O [(5-Oxo-10,11-dihydro-5H-dibenzo[a,d]cyclohepten-2-yl)-acetic acid] |
| 280 | O=C(O)Cc1ccc2c(c1)CCc1cccc(O)c1C2=O [(6-Hydroxy-5-oxo-10,11-dihydro-5H-dibenzo[a,d]cyclohepten-2-yl)-acetic acid] |
| 0.83 | O=C(O)Cc1ccc2c(c1)CCc1ccc(O)cc1C2=O [(7-Hydroxy-5-oxo-10,11-dihydro-5H-dibenzo[a,d]cyclohepten-2-yl)-acetic acid] |
| 0.33 | O=C(O)Cc1ccc2c(c1)OCc1ccccc1C2=O [Oxepinac] |
